From patent EP0557936A1, “Amidic derivatives of (R)-glycerophosphoryl-(S)-serine or of its diacyl derivative, process for their preparation and relative pharmaceutical compositions for the improvement of the learning processes” (MAGIS FARMACEUTICI S.p.A., priority 1992, dated 1993)

Columns and labels:
[1] = system: scopolamine induced amnesy; assay: passive avoidance test, scopolamine induced amnesia (intraperitoneal administration); format: in vivo, rat; settings: scopolamine 1 mg/kg; for Avoid. time (sec.) After 24 h: re-test after 24 h, end-point 300 second
Procedure: (§1) The antiamnesic activity was tested by means of the classical passive avoidance test, with respect to the amnesy induced in the rat, by administration of scopolamine, or by means of electroconvulsive shock (ECS).For both the tests a shuttle-box was used of the Ugo Basile Company (Comerio, Varese), consisting of two compartments, one of which compartments was clear and the other one dark and fitted with an electrifiable floor.
(§2) In order to induce a passive avoidance response, the animal was placed onto a runner of the clear compartment, enlightened by a 60 watt lamp, for a 1 minute acclimatisation, whereafter a bulkhead was opened putting the runner in communication with the dark compartment, which the animal istinctively entered after a latency of a few seconds. The bulkhead was immediately shut and the animal got a 0.21 mA current for 2 second through the electrifiable floor. The animal was then removed and newly subjected to the test 24 h later, in order to verify the retention level of the acquired response of passive avoidance, measuring the latency required by the entry into the electrifiable compartment, with an end-point of 300 second.
(§3) All the tests were carried out under conditions of stratified randomization, using in each test session the same number of animals for the different experimental groups tested in parallel, and comprising, besides the groups treated with the product under test (test substances and reference substances having known activity), two separate groups of controls and precisely: blank controls (animals treated with placebo) and deconditioned controls (animals treated with placebo and subjected to amnesic treatment by means of scopolamine or of ECS).
(§4) The results obtained with the different dosages of the products subjected to screening and with the corresponding reference standards having a known activity, namely N(S)-3-(formyl-amino)-epsilon-caprolactam, N(4-phenylbutanoyl-hydroxy)prolyl-pyrrolidine and glycerophosphoryl-serine, were expressed as a percentage of antagonism of the amnesy (AA), defined according to the following formula: [formula] wherein the index of comparison IC, concerning treated animals (t) and blank controls (b), is defined by the formula: [formula] wherein: Nm = number of animals belonging to group m (blanks or treated animals); Nn = number of animals belonging to group n (deconditioned animals); Amn = binary function which can assume only the values +1, zero or - 1, depending on the fact that the latency time (seconds) of an animal of the m group (xm) be respectively higher than, equal to or lower than the latency time (seconds) of an animal of the n group (xn).
(§5) The summation Σ Amn i extended to all the pairs obtained combining each xm term with each xn term.
(§6) Normally the comparison index (IC) between blank controls and deconditioned controls is between 60% and 80% and the test was discarded when such index resulted to be lower than 40%.
The utilized rats were male C.r.l.: CD (50) BR (Charles River Italia), showing a weight of 150-170 g, after an acclimatisation time of a week, under standard conditions.
The animals got the products to be tested by intraperitoneal way and scopolamine bromhydrate (1 mg/kg) by subcutaneous way, respectively 45 and 30 minutes before being subjected to the previously described avoidance test.
As to the standard substances [GFS, N(S)-3-(formylamino)-epsilon-caprolactam and N(4-phenylbutanoylhydroxy)prolyl-pyrrolidine], the used dosage was 4x10⁻² mmol/kg, whereas for the products to be tested the used dosage was between 1x10⁻² and 12x10⁻² mmol/kg, with an intermediate dosage equimolar with respect to the one of the standards.

ECS engendered amnesy = assay: passive avoidance test, electroconvulsive shock (ECS) induced amnesia; format: in vivo, rat; settings: groups of 10
Procedure: as §1, §2, §3, §4, §5, §6
The animals got the products to be tested 30 minute before undergoing the previously described avoidance test.
In this series of experimental works the deconditioning treatment consists of an electroshock (square wave of 45 m, amplitude 0.6 ms, time 2 s and frequency 40 Hz), delivered by means of auricular electrodes, connected to an electrostimulator ECT/UNIT of the Ugo Basile Company (Comerio, Varese).
The used dosages were 8x10⁻² mmol/kg for the standard substances, therefore higher than the ones used in the preceeding test and this depends on a lower activity of the standard substances, previously ascertained in this test, in our experimental conditions.
The dosages of the products to be tested were correlatively comprised between 2x10⁻² and 24x10⁻² mmol/kg, with an intermediate dosage equimolar (8x10⁻² mmol/kg) with respect to the ones of the standard substances.

[2] = dose 4 x 10^-2 mmoli/kg i.p. 30' before the acquisition trial
[3] = dose 8 x 10^-2 mmoli/kg i.p. 30' before the acquisition trial
[4] = dose 12 x 10^-2 mmoli/kg i.p. 30' before the acquisition trial
[5] = dose 16 x 10^-2 mmoli/kg i.p. 30' before the acquisition trial

Compound	No.of amnesic rats/No. of rats tested ([1]; dose 4.10^-2 mmoli/kg i.p.)	Percent amnesia ([1]; dose 4.10^-2 mmoli/kg i.p.) [%]	Avoid. time (sec.) After 24 h ([1]; dose 4.10^-2 mmoli/kg i.p.)	No.of amnesic rats/No. of rats tested ([1]; dose 8.10^-2 mmoli/kg i.p.)	Percent amnesia ([1]; dose 8.10^-2 mmoli/kg i.p.) [%]	Avoid. time (sec.) After 24 h ([1]; dose 8.10^-2 mmoli/kg i.p.)	No.of amnesic rats/No. of rats tested ([1]; dose 12.10^-2 mmoli/kg i.p.)	Percent amnesia ([1]; dose 12.10^-2 mmoli/kg i.p.) [%]	Avoid. time (sec.) After 24 h ([1]; dose 12.10^-2 mmoli/kg i.p.) [s]	Time taken to enter chamber (min) (ECS engendered amnesy; [2])	Time taken to enter chamber (min) (ECS engendered amnesy; [3])	Time taken to enter chamber (min) (ECS engendered amnesy; [4])	Time taken to enter chamber (min) (ECS engendered amnesy; [5])	Time taken to enter chamber (min) (ECS engendered amnesy; dose 24 x 10^-2 mmoli/kg i.p. 30' before the acquisition trial)
COC(=O)CN1CCCC[C@H](NC(=O)[C@@H](N)COP(=O)(O)OC[C@H](O)CO)C1=O [MGS 2]	2/10	20	270 s	0/10	0	300 s	0/10	0	300	0,557 min	1,418 min	2,072 min	1,777 min	
O=CN[C@H]1CCCCNC1=O [N-Formylamino ε -caprolactame, N(S)-3-(formyl-amino)-epsilon-caprolactam, reference compound]	4/10	40	72,5 sec.								0,131 min			
N[C@@H](COP(=O)(O)OC[C@H](O)CO)C(=O)N[C@H]1CCCCNC1=O [MGS 4]											0,466 min	1,316 min		1,883 min
N[C@@H](COP(=O)(O)OC[C@H](O)CO)C(=O)O [GFS, glycerophosphoryl-serine, reference compound]	4/10	40	126,5 sec.								0,236 min			
N(4-phenylbutanoyl-hydroxy)prolyl-pyrrolidine [Phenyl-butirryl prolyl-pirrolidine, reference compound]	4/10	40	101,7 sec.								0,213 min			
COC(=O)CN1CCCC[C@H](NC(=O)[C@@H](N)COP(=O)(O)OC[C@@H](COC(C)=O)OC(C)=O)C1=O [MGS 1]	2/10	20	243,5 sec.	1/10	10	266,6 sec.	0/10	0	300	0,664 min	1,378 min	1,916 min	1,615 min	
